{"source": "patent US20240277583A1", "about": "“Micellar Mouthwash Composition” (Colgate-Palmolive Company, priority 2022, published 2024)", "key": {"[1]": {"test": "Colloid particle (micelle) size by dynamic light scattering", "assay_type": "physicochemical", "conditions": "colloid particle diameter", "description": "Next, the colloid particle (micelle) size in Formulations A and B as well as Elmex mouthwash is examined.\nIn contrast, the micelle size of Formulation B is around 14.1 nm, close to that of PEG-40 hydrogenated castor oil (16.0 nm). Although the inflection point of the surface tension curve is not obvious in the Elmex mouthwash, dynamic light scattering detects colloid particles with 12.2 nm diameter, which are likely solubilized oil droplets in the mouthwash product. With the smallest particle size (amine fluoride/coco glucoside<amine fluoride<amine fluoride/PEG-40 hydrogenated castor oil), amine fluoride/cocoyl glucoside complex is most mobile and can likely reach smaller spaces that others cannot reach. This feature would likely enhance the delivery of active encapsulated in the micelle core, and also enhance availability of amine fluoride, therefore improving its antibacterial efficacy."}, "[2]": {"test": "Diffusion rate D determined by NMR", "assay_type": "physicochemical"}}, "data": [{"compound": "CCCCCCCCCCCCCCCCCCN(CCO)CCCN(CCO)CCO.F.F", "note": "[Olaflur, N′-octadecyltrimethylenediamine-N,N,N′-tris(2-ethanol)-dihydrofluoride]", "values": [{"measurement": "Micelle size (nm) mean", "setting": "[1]", "value": 6.6, "unit": "nm"}, {"measurement": "D in individual solution", "setting": "[2]; ingredient alone in solution", "value": "4.84 × 10^−6 cm^2/s"}, {"measurement": "D in Formulation A", "setting": "[2]; ingredient within Formulation A (Olaflur + coco glucoside)", "value": "2.27 × 10^−6 cm^2/s"}, {"measurement": "D in Formulation B", "setting": "[2]; ingredient within Formulation B (Olaflur + PEG-40 hydrogenated castor oil)", "value": "4.33 × 10^−6 cm^2/s"}]}]}
